# Reference: ChEMBL document CHEMBL2073836, “Interactions of nonsteroidal anti-inflammatory drugs with rat renal organic anion transporter, OAT-K1” (J Pharmacol Exp Ther, 1997)
# Columns and labels:
# Format in all cases: functional, cell-based
# [1] = target: T1, Solute carrier organic anion transporter family member 1A3 (Rattus norvegicus, UniProt P70502); assay: TP_TRANSPORTER: inhibition of MTX uptake (MTX: 0.1 uM, Flufenamate: 1000 uM) in OAT-K1-expressing LLC-PK1 cells; settings: pig, llc-pk1, 1000 µM
# T1 sequence (P70502 whole entry): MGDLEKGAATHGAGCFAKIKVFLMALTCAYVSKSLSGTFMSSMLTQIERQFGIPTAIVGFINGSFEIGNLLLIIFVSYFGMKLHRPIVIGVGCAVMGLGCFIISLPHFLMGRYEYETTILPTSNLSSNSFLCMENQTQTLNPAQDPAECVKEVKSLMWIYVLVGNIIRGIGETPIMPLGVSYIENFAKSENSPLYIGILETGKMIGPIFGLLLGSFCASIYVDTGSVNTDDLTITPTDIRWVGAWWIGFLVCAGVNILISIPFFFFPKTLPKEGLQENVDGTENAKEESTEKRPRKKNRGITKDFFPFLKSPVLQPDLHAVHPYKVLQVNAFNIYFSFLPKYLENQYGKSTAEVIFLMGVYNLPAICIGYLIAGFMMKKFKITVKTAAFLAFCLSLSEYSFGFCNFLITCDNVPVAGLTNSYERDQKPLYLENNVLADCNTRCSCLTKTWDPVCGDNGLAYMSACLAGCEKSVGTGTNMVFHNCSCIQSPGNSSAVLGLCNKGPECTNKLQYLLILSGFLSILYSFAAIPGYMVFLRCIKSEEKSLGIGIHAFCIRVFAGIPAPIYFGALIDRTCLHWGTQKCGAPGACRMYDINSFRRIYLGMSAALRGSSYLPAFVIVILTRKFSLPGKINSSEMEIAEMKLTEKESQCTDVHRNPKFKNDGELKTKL
# [2] = target: T1, Solute carrier organic anion transporter family member 1A3; assay: TP_TRANSPORTER: inhibition of MTX uptake (MTX: 0.1 uM, Ibuprofen: 1000 uM) in OAT-K1-expressing LLC-PK1 cells; settings: pig, llc-pk1, 1000 µM
# [3] = target: T1, Solute carrier organic anion transporter family member 1A3; assay: TP_TRANSPORTER: inhibition of MTX uptake in OAT-K1-expressing LLC-PK1 cells
# [4] = target: T1, Solute carrier organic anion transporter family member 1A3; assay: TP_TRANSPORTER: inhibition of MTX uptake (MTX: 0.1 uM, Phenylbutazone: 1000 uM) in OAT-K1-expressing LLC-PK1 cells; settings: pig, llc-pk1, 1000 µM
structure (smiles),measurement,setting,value
O=C(O)c1ccccc1Nc1cccc(C(F)(F)F)c1 [FLUFENAMIC ACID],Activity,[1],inhibitor [(at a rough estimate) 55 % of control]
CC(C)Cc1ccc(C(C)C(=O)O)cc1 (stereo not given) [IBUPROFEN],Activity,[2],inhibitor [(at a rough estimate) 65 % of control]
COc1ccc2c(c1)c(CC(=O)O)c(C)n2C(=O)c1ccc(Cl)cc1 [INDOMETHACIN],Ki,[3],1 mM
CC(C(=O)O)c1cccc(C(=O)c2ccccc2)c1 (stereo not given) [KETOPROFEN],Ki,[3],1.9 mM
CCCCC1C(=O)N(c2ccccc2)N(c2ccccc2)C1=O [PHENYLBUTAZONE],Activity,[4],inhibitor [(at a rough estimate) 70 % of control]
